19 compounds from US20220089575A1, “FARNESOID X RECEPTOR AGONISTS AND USES THEREOF” (Metacrine, Inc., priority 2017, published 2022) can be followed below.

The assay has as its target T1, hFXR (Homo sapiens, UniProt Q96RI1).
T1 construct: expressed in transfected cells; host or cells: CV-1 cells
T1 sequence (Q96RI1 1-486): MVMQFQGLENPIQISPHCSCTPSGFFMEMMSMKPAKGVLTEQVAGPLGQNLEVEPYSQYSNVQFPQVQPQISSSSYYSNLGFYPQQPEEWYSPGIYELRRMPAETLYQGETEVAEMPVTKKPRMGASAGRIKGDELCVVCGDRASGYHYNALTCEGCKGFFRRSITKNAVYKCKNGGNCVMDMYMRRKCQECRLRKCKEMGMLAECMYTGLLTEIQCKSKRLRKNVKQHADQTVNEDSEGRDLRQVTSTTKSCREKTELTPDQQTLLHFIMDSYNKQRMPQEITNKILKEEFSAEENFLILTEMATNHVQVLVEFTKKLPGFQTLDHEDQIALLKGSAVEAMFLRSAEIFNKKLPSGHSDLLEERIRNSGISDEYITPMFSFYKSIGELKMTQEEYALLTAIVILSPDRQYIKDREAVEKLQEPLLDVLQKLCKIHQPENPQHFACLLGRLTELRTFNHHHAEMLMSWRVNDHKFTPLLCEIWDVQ
T1 sequence (P19793 1-462 partner): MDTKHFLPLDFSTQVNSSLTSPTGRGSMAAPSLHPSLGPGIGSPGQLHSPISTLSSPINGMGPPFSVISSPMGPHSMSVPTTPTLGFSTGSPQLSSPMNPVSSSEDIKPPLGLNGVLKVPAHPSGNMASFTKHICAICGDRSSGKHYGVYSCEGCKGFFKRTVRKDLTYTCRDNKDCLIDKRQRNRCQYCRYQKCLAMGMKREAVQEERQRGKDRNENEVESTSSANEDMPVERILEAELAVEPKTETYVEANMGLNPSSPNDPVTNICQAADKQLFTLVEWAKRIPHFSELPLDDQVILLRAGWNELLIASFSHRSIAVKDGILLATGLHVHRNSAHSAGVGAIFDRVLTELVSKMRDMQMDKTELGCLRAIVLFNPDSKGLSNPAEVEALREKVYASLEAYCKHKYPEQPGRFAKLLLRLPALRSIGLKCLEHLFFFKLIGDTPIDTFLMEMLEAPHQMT
In words: In Vitro FXR Assay (TK): TK-ECRE-luc reporter in transfected CV-1 cells. Type of assay: cell-based. As to conditions: 18 hrs, luminescence, maximum efficacy of <25% of the Fexarmine control classified as '+'. The gist of the method: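 Transiently transfected monkey CV-1 cells (hFXR, hRXR, TK-ECRE-luciferase, YFP control plasmid), held in stripped-serum DMEM, received compound dilutions from DMSO for 18 h at 37 °C. Activity was taken from luminescence of the cell lysates.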

What is called EC50 is the concentration that produces a half-maximal response. Read a low EC50 as higher potency in that assay. In turn, `COc1ccc([C@H]2CC[C@H](CN(c3cc(-c4coc(C5CC5)n4)ccn3)C(=O)[C@H]3CC[C@H](OC(=O)N4CC(O)C4)CC3)CC2)cc1C` [Compound 7.67, trans-4-((4-(2-Cyclopropyloxazol-4-yl)pyridine-2-yl)((trans-4-(4-methoxy-3-methylphenyl)cyclohexyl)methyl)carbamoyl)cyclohexyl 3-hydroxyazetidine-1-carboxylate] returned an EC50 of no more than 250 nM.
The value for `COCC(=O)N[C@H]1CC[C@H](C(=O)N(C[C@H]2CC[C@H](c3ccc(OC)c(C)c3)CC2)c2cccc(-c3cnc(C4CC4)s3)c2)CC1` [Compound 25.12, trans-N-(3-(2-Cyclopropylthiazol-5-yl)phenyl)-N-((trans-4-(4-methoxy-3-methylphenyl)cyclohexyl)methyl)-4-(2-methoxyacetamido) cyclohexanecarboxamide] was no more than 250 nM; that for `COc1ccc([C@H]2CC[C@H](CN(c3cc(-c4cnn(C(C)C)c4)ccn3)C(=O)[C@H]3CC[C@H](OC(=O)N4CCOCC4)CC3)CC2)cc1C#N` [Compound 6.37, trans-4-(((trans-4-(3-Cyano-4-methoxyphenyl)cyclohexyl)methyl)(4-(1-isopropyl-1H-pyrazol-4-yl)pyridin-2-yl)carbamoyl)cyclohexyl morpholine-4-carboxylate] was no more than 250 nM; that for `COc1ccc([C@H]2CC[C@H](CN(c3cc(-c4coc(C5CC5)n4)ccn3)C(=O)[C@H]3CC[C@H](OC(=O)N4CCC4)CC3)CC2)nc1C` [Compound 7.75, trans-4-((4-(2-Cyclopropyloxazol-4-yl)pyridine-2-yl)((trans-4-(5-methoxy-6-methylpyridin-2-yl)cyclohexyl)methyl)carbamoyl)cyclohexyl azetidine-1-carboxylate] was no more than 250 nM.
As for `COc1ccc([C@H]2CC[C@H](CN(c3cc(-c4coc(C5CC5)n4)ccn3)C(=O)[C@H]3CC[C@H](OC(=O)NC(C)(C)CO)CC3)CC2)nc1C` [Compound 6.90, trans-4-((4-(2-Cyclopropyloxazol-4-yl)pyridin-2-yl)((trans-4-(5-methoxy-6-methylpyridin-2-yl)cyclohexyl)methyl)carbamoyl)cyclohexyl (1-hydroxy-2-methylpropan-2-yl)carbamate], the figure is no more than 250 nM; as for `COc1ncc(-c2cccc(N(C[C@H]3CC[C@H](c4ccc(OC)c(C)c4)CC3)C(=O)[C@H]3CC[C@H](C(=O)N(C)C)CC3)c2)s1` [Compound 24.02, trans-N^1-((trans-4-(4-Methoxy-3-methylphenyl)cyclohexyl)methyl)-N^1-(3-(2-methoxythiazol-5-yl)phenyl)-N^4,N^4-dimethylcyclohexane-1,4-dicarboxamide], no more than 250 nM; as for `COc1ccc([C@H]2CC[C@H](CN(c3cc(-c4cnn(C(C)C)c4)ccn3)C(=O)[C@H]3CC[C@H](OC(=O)N4CC(S(C)(=O)=O)C4)CC3)CC2)cc1C#N` [Compound 6.36, trans-4-(((trans-4-(3-Cyano-4-methoxyphenyl)cyclohexyl)methyl)(4-(1-isopropyl-1H-pyrazol-4-yl)pyridin-2-yl)carbamoyl)cyclohexyl 3-(methylsulfonyl)azetidine-1-carboxylate], no more than 250 nM.
In turn, `COc1ccc([C@H]2CC[C@H](CN(c3cccc(-c4cnn(C(C)C)c4)c3)C(=O)[C@H]3CC[C@H](OC(=O)N4CC(S(C)(=O)=O)C4)CC3)CC2)nc1C` [Compound 6.42, trans-4-((3-(1-Isopropyl-1H-pyrazol-4-yl)phenyl)((trans-4-(5-methoxy-6-methylpyridin-2-yl)cyclohexyl)methyl)carbamoyl)cyclohexyl 3-(methylsulfonyl)azetidine-1-carboxylate] gave an EC50 of no more than 250 nM.
For `COc1ccc([C@H]2CC[C@H](CN(c3cccc(-c4cnc(C5CC5)s4)c3)C(=O)[C@H]3CC[C@H](NC(=O)C[S+](C)[O-])CC3)CC2)cc1C` (stereo partly drawn) [Compound 31.11, trans-N-(3-(2-Cyclopropylthiazol-5-yl)phenyl)-N-((trans-4-(4-methoxy-3-methylphenyl)cyclohexyl)methyl)-4-(2-(methylsulfinyl)acetamido) cyclohexanecarboxamide], the EC50 is no more than 250 nM.
As for `COc1ccc([C@H]2CC[C@H](CN(c3cc(-c4coc(C5CC5)n4)ccn3)C(=O)[C@H]3CC[C@H](OC(=O)N4CCOC(C)(C)C4)CC3)CC2)nc1C` [Compound 6.83, trans-4-((4-(2-Cyclopropyloxazol-4-yl)pyridin-2-yl)((trans-4-(5-methoxy-6-methylpyridin-2-yl)cyclohexyl)methyl)carbamoyl)cyclohexyl 2,2-dimethylmorpholine-4-carboxylate], the figure is no more than 250 nM; as for `COc1ccc([C@H]2CC[C@H](CN(c3cccc(-c4cnn(C5CC5)c4)c3)C(=O)[C@H]3CC[C@H](OC(=O)N4CC[S+]([O-])CC4)CC3)CC2)cc1C` [Compound 7.29, trans-4-((3-(1-Cyclopropyl-1H-pyrazol-4-yl)phenyl)((trans-4-(4-methoxy-3-methylphenyl)cyclohexyl)methyl)carbamoyl)cyclohexyl thiomorpholine-4-carboxylate 1-oxide], no more than 250 nM; as for `COc1ncc(-c2cccc(N(C[C@H]3CC[C@H](c4ccc(OC)c(C)c4)CC3)C(=O)[C@H]3CC[C@H](OCCO)CC3)c2)s1` [Compound 13.03, trans-4-(2-Hydroxyethoxy)-N-((trans-4-(4-methoxy-3-methylphenyl)cyclohexyl)methyl)-N-(3-(2-methoxythiazol-5-yl)phenyl)cyclohexanecarboxamide], no more than 250 nM.
`COc1ccc([C@H]2CC[C@H](CN(c3cccc(-c4coc(C5CC5)n4)c3)C(=O)[C@H]3CC[C@H](CC(=O)O)CC3)CC2)nc1C` [Compound 21.03, 2-(trans-4-((3-(2-Cyclopropyloxazol-4-yl)phenyl)((trans-4-(5-methoxy-6-methylpyridin-2-yl)cyclohexyl)methyl)carbamoyl)cyclohexyl) acetic acid] had an EC50 of no more than 250 nM.
Consider `COc1ccc([C@H]2CC[C@H](CN(c3cccc(-c4cnn(C(C)C)c4)c3)C(=O)[C@H]3CC[C@H](OC(=O)N4CC(CO)C4)CC3)CC2)nc1C` [Compound 7.61, trans-4-((3-(1-Isopropyl-1H-pyrazol-4-yl)phenyl)((trans-4-(5-methoxy-6-methylpyridin-2-yl)cyclohexyl)methyl)carbamoyl)cyclohexyl 3-(hydroxymethyl)azetidine-1-carboxylate], for which the EC50 is no more than 250 nM.
The value for `COc1ccc([C@H]2CC[C@H](CN(c3cccc(-c4coc(C5CC5)n4)c3)C(=O)[C@H]3CC[C@H](CC(=O)O)CC3)CC2)cc1C` [Compound 21.02, 2-(trans-4-((3-(2-Cyclopropyloxazol-4-yl)phenyl)((trans-4-(4-methoxy-3-methylphenyl)cyclohexyl)methyl)carbamoyl)cyclohexyl)acetic acid] was no more than 250 nM.
As for `COc1ncc([C@H]2CC[C@H](CN(c3cc(-c4coc(C5CC5)n4)ccn3)C(=O)[C@H]3CC[C@H](OC(=O)N4CC(O)C4)CC3)CC2)cc1C` [Compound 7.94, trans-4-((4-(2-Cyclopropyloxazol-4-yl)pyridine-2-yl)((trans-4-(6-methoxy-5-methylpyridin-3-yl)cyclohexyl)methyl)carbamoyl)cyclohexyl 3-hydroxyazetidine-1-carboxylate], the figure is no more than 250 nM; as for `COc1ccc([C@H]2CC[C@H](CN(c3cccc(-c4cnn(C5CC5)c4)c3)C(=O)[C@H]3CC[C@H](C(=O)OC)CC3)CC2)cc1C` [Compound 18.13, trans-Methyl 4-((3-(1-cyclopropyl-1H-pyrazol-4-yl)phenyl)((trans-4-(4-methoxy-3-methylphenyl)cyclohexyl)methyl)carbamoyl) cyclohexanecarboxylate], no more than 250 nM; as for `COc1ccc([C@H]2CC[C@H](CN(c3cccc(-c4cnn(C5CC5)c4)c3)C(=O)[C@H]3CC[C@H](OC(=O)NC[C@H](O)CO)CC3)CC2)cc1C` [Compound 6.12, trans-4-((3-(1-Cyclopropyl-1H-pyrazol-4-yl)phenyl)((trans-4-(4-methoxy-3-methylphenyl)cyclohexyl)methyl)carbamoyl)cyclohexyl ((S)-2,3-dihydroxypropyl)carbamate], no more than 250 nM.
The compound `COc1ccc([C@H]2CC[C@H](CN(c3cc(-c4cnn(C(C)C)c4)ccn3)C(=O)[C@H]3CC[C@H](OC(=O)NC(C)C)CC3)CC2)nc1C#N` [Compound 6.32, trans-4-(((trans-4-(6-Cyano-5-methoxypyridin-2-yl)cyclohexyl)methyl) (4-(1-isopropyl-1H-pyrazol-4-yl)pyridin-2-yl)carbamoyl)cyclohexyl isopropylcarbamate] yielded a 50% effective concentration (EC50) of no more than 250 nM.
